This note sets out measurements from US20090099195A1 (ASTRAZENECA AB, priority 2007, published 2009).

In general, IC50 refers to the point on the concentration scale where inhibition reaches its midpoint.

In the assay the target is T1, hP2X3 (human Purinergic P2X receptors subtype 3), clone B (Homo sapiens, UniProt P56373).
T1 sequence (P56373 1-397): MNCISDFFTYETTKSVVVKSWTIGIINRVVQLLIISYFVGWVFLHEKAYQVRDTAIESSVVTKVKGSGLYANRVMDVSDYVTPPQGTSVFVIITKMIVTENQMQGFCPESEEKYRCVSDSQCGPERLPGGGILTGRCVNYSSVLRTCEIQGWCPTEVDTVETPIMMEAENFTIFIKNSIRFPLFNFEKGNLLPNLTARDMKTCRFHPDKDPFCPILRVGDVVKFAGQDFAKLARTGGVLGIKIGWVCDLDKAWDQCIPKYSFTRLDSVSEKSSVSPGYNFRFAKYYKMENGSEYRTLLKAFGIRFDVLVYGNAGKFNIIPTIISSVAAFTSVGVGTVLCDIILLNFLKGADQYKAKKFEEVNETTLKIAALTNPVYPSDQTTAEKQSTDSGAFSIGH
Kind of assay: hP2X3 FLIPR calcium (Fluo-4) antagonist assay, clone B. Conditions: Human P2X3 FLIPR Clone B IC50 (nM), RLE cells expressing hP2X3 clone B (NM_002559); agonist 500 nM α,β-methylene-ATP.
As for `CC(=O)N1CCN(c2nc(NC(C)Cc3ccc(F)cc3)c3c(n2)C(=O)N(C(C)C)C3)CC1` (centres unmarked) [Example 12, 2-(4-acetylpiperazin-1-yl)-4-{[2-(4-fluorophenyl)-1-methylethyl]amino}-6-isopropyl-5,6-dihydro-7H-pyrrolo[3,4-d]pyrimidin-7-one], the IC50 amounted to 3900 nM.

For the compound `CC(=O)N1CCN(c2nc3c(c(N4CCCC4c4nc(-c5ccccc5)no4)n2)CN(C(C)C)C3=O)CC1` (centres unmarked) [Example 280, 4-(4-acetylpiperazin-1-yl)-2-[2-(3-phenyl-1,2,4-oxadiazol-5-yl)pyrrolidin-1-yl]-8-propan-2-yl-3,5,8-triazabicyclo[4.3.0]nona-1,3,5-trien-7-one], the IC50 is 5100 nM.

Turning to `CCN1CCN(c2cc(C(F)(F)F)ccc2CNc2nc(N3CCN(C(C)=O)CC3)nc3c2CN(C(C)C)C3=O)CC1` [Example 223, 2-(4-acetylpiperazin-1-yl)-4-(2-(4-ethylpiperazin-1-yl)-4-(trifluoromethyl)benzylamino)-6-isopropyl-5H-pyrrolo[3,4-d]pyrimidin-7(6H)-one], the IC50 was found to be 620 nM.

As to `CC(=O)N1CCN(c2nc(N[C@H](C)c3ccc4c(c3)CCC(C)(C)O4)c3c(n2)C(=O)N(C(C)C)C3)CC1` [Example 169, (R)-2-(4-acetylpiperazin-1-yl)-4-(1-(2,2-dimethylchroman-6-yl)ethylamino)-6-isopropyl-5H-pyrrolo[3,4-d]pyrimidin-7(6H)-one], the IC50 worked out at 51 nM.

Consider `CC(=O)N1CCN(c2nc(NCC(c3ccccc3)c3ccccc3)c3c(n2)C(=O)N(C(C)C)C3)CC1` [Example 91, 2-(4-acetylpiperazin-1-yl)-4-[(2,2-diphenylethyl)amino]-6-isopropyl-5,6-dihydro-7H-pyrrolo[3,4-d]pyrimidin-7-one], for which the IC50 worked out at 100 nM.

For the compound `CC(=O)N1CCN(c2nc(NC(c3ccc(Cl)cc3)C3CC3)c3c(n2)C(=O)N(C(C)C)C3)CC1` (centres unmarked) [Example 27, 2-(4-acetylpiperazin-1-yl)-4-{[(4-chlorophenyl)(cyclopropyl)methyl]amino}-6-isopropyl-5,6-dihydro-7H-pyrrolo[3,4-d]pyrimidin-7-one], the half-inhibitory concentration (IC50) was 140 nM.

In the case of `CC(=O)N1CCN(c2nc(NCc3cc4ccccc4n3C)c3c(n2)C(=O)N(C(C)C)C3)CC1` [Example 237, 2-(4-acetylpiperazin-1-yl)-6-isopropyl-4-((1-methyl-1H-indol-2-yl)methylamino)-5H-pyrrolo[3,4-d]pyrimidin-7(6H)-one], the IC50 worked out at 500 nM.

For the compound `CC(=O)N1CCN(c2nc3c(c(N(Cc4ccc(F)cc4)C4CCCC4)n2)CN(C(C)C)C3=O)CC1` [Example 4, 2-(4-acetylpiperazin-1-yl)-4-[cyclopentyl(4-fluorobenzyl)amino]-6-isopropyl-5,6-dihydro-7H-pyrrolo[3,4-d]pyrimidin-7-one], the IC50 was determined as 800 nM.

For `CC(=O)N1CCN(c2nc3c(c(N(Cc4ccc(Cl)cc4)CC4CC4)n2)CN(C(C)C)C3=O)CC1` [Example 59, 2-(4-acetylpiperazin-1-yl)-4-[(4-chlorobenzyl)(cyclopropylmethyl)amino]-6-isopropyl-5,6-dihydro-7H-pyrrolo[3,4-d]pyrimidin-7-one], the IC50 was found to be 220 nM.

For `CCOC(=O)C(CNc1nc(N2CCN(C(C)=O)CC2)nc2c1CN(C(C)C)C2=O)c1ccccc1` (centres unmarked) [Example 2, ethyl 3-{[2-(4-acetylpiperazin-1-yl)-6-isopropyl-7-oxo-6,7-dihydro-5H-pyrrolo[3,4-d]pyrimidin-4-yl]amino}-2-phenylpropanoate], the IC50 was determined as 1900 nM.

As for `CC(=O)N1CCN(c2nc3c(c(N4CCCC4Cc4ccccc4)n2)CN(C(C)C)C3=O)CC1` (centres unmarked) [Example 54, 2-(4-acetylpiperazin-1-yl)-4-(2-benzylpyrrolidin-1-yl)-6-isopropyl-5,6-dihydro-7H-pyrrolo[3,4-d]pyrimidin-7-one], the half-inhibitory concentration (IC50) amounted to 240 nM.
